{
  "source": "ChEMBL document CHEMBL3813616",
  "about": "“Discovery of novel 7-azaindoles as PDK1 inhibitors” (Bioorg Med Chem Lett, 2016)",
  "key": {"[1]": {"biological_target": "Tyrosine-protein kinase ABL1 (Homo sapiens) (UniProt P00519)", "sequence (P00519 whole entry, the tested form may be a part)": "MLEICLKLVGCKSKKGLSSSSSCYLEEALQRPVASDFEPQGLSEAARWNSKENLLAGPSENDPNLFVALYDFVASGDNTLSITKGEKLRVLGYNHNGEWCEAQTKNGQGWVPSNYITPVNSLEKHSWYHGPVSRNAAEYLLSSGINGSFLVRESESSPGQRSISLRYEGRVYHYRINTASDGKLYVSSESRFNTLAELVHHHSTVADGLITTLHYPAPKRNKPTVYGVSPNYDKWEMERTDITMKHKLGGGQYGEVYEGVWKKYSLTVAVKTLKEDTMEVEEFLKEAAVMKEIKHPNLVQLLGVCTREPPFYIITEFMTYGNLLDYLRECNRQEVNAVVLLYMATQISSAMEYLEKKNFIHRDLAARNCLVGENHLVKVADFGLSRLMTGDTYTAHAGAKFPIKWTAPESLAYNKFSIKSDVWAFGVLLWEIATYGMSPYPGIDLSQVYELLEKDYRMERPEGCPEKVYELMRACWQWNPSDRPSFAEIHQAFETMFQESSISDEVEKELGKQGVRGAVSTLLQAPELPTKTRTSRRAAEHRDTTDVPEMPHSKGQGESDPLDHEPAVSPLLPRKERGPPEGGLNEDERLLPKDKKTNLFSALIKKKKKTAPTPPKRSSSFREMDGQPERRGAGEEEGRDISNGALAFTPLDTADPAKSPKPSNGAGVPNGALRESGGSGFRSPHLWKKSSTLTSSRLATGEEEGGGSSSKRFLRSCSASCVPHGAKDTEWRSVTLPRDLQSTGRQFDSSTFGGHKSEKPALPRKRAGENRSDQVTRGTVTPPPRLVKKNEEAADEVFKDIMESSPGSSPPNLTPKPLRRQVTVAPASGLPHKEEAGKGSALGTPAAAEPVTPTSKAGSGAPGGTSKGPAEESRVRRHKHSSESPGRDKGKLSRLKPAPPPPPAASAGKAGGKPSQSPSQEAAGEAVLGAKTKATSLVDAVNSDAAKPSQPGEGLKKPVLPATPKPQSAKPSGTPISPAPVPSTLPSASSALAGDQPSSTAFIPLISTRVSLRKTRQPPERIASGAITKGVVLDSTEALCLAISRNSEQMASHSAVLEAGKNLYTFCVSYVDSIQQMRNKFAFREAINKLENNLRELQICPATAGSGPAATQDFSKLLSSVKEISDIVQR", "assay": "Inhibition of human ABL (118 to 535 residues) assessed as enzyme activity at 1 uM using 33P ATP by radioactive filter binding assay", "set-up": "scale not given: the % may be the effect or the level left"}, "[2]": {"biological_target": "Ephrin type-A receptor 4 (Homo sapiens) (UniProt P54764)", "sequence (P54764 whole entry, the tested form may be a part)": "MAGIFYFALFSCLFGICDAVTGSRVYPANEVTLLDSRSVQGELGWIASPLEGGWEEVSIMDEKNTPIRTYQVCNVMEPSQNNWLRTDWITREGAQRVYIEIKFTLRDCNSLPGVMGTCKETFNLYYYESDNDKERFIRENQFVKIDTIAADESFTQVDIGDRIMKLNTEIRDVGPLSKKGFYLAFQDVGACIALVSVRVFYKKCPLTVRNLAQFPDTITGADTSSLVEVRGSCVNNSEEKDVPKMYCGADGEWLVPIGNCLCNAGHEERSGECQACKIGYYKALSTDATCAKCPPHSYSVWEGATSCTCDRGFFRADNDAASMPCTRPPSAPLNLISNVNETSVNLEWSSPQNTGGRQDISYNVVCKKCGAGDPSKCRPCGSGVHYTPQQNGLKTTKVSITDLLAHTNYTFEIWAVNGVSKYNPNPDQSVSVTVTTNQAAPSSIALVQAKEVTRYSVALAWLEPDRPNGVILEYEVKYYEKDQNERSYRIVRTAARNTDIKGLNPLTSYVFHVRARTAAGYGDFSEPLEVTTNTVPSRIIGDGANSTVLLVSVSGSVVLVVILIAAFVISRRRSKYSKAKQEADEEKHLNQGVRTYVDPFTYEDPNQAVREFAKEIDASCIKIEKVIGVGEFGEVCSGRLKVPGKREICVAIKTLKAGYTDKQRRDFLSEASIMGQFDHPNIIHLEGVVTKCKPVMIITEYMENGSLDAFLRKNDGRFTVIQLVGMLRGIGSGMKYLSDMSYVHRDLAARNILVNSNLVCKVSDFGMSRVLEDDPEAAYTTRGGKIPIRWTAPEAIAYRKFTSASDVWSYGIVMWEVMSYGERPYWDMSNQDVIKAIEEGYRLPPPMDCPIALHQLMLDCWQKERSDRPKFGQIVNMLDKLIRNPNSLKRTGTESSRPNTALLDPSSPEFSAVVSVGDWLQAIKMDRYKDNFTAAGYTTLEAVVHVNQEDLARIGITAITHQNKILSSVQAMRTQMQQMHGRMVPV", "assay": "Inhibition of human EPHA4 (570 to 986 residues) assessed as enzyme activity at 1 uM using 33P ATP by radioactive filter binding assay", "set-up": "scale not given: the % may be the effect or the level left"}},
  "data": [
    {"smiles": "Nc1nccc(-c2c[nH]c3ncccc23)n1", "note": "[MERIOLIN 1]", "values": [
      {"measurement": "Activity", "setting": "[1]", "result": 1, "unit": "%"},
      {"measurement": "Activity", "setting": "[2]", "result": 15, "unit": "%"}
    ]}
  ]
}
